Test results: patent publication US20030219456A1, “Method of utilization of zygosaccharomyces rouxii” (priority 2002, published 2003)

Assays:
Type in all cases: biochemical
[1] = Peroxide value (POV) activity, modified Rodan's method; conditions: 0.1 g/ml in ethyl alcohol, 0.05 ml; 50° C., 3 days, dark; OD 500 nm
Experimental: Peroxide value (POV) activity was determined by a slightly modified Rodan's method (Terasawa, N., Yamazaki, N., and Fukui Y: Antioxidant activity of water extracts of herbs, Nippon Shokuhin Kagaku Kogaku Kaishi, 48, 2, 99-104, 2001.)
After mixing in a screw-capped test tube, the reaction mass was incubated inside a dark incubator at 50° C. for 3 days. The assay of liberated peroxide compounds was carried out as follows.
After 3 minutes, optical density was measured at 500 nm. Percent POV activity was calculated as follows:
Percent activity=100×(OD of sample or standard/OD of control)

[2] = DPPH free radical scavenging activity (Example 9); conditions: standard compounds 100 mg/ml in ethyl alcohol
Experimental: The said Sample was washed with ethyl acetate to get organic acids crystallized out. The crystals mainly consisted of succinic acid, which was identified by RI and H-NMR. The remaining magma, called bio-polyphenols (BPP) was tested for its anti-oxidant activity. The BPP was dissolved in ethyl alcohol to get concentrations of 100 mg/ml to 400 mg/ml. Standard compounds of BHA, BHT and vitamin E, which are recognized as strong anti-oxidants, and ZR drink described in Example 4 were also employed for comparison. Concentration of standard compounds in ethyl alcohol was 100 mg/ml each. The assay method to determine the scavenging activity of free radical DPPH was as described below.
Optical density OD was measured at 517 nm at 0 mm and 30 mm after mixing. Percent free radical scavenging activity was calculated as follows.
Percent activity=(Ac 1−(At2−Ab 1)}/Ac2×100,
Where Ac1=of control at 0 mm
Ac2=OD of control at 30 mm

[3] = DPPH free radical scavenging activity (preferred embodiment); conditions: standard compounds 100 mg/ml (0.1 g/ml) in ethyl alcohol; OD 517 nm, 30 min
Experimental: Free radical scavenging activity was then evaluated. Standard solutions (0.1 g/ml in ethyl alcohol) of BHA, BHT and vitamin E were freshly prepared. DPPH scavenging activity was determined as described below. The following observations and results were then recorded: [table] Optical density OD was measured at 517 nm at 0 min and 30 min after mixing. Percent free radical scavenging activity was calculated as follows: Percent activity=100×{Ac1−(At2−Ab1)}/Ac2, Where Ac1=OD of control at 0 min At2=OD of test at 30 min Ab1=OD of blank at 0 min Ac2=OD of control at 30 min

With `COc1ccc(O)c(C(C)(C)C)c1` [BHA] the “Percent activity (POV) = 100 x OD of sample or standard / OD of control” value [1] was 8.9%, the “Percent activity (free radical scavenging)” value [2] was 83.0% and the “Percent activity (free radical scavenging)” value [3] was 83.0%.
With `Cc1cc(C(C)(C)C)c(O)c(C(C)(C)C)c1` [BHT] the “Percent activity (POV) = 100 x OD of sample or standard / OD of control” value [1] was 13.5%, the “Percent activity (free radical scavenging)” value [2] was 83.4% and the “Percent activity (free radical scavenging)” value [3] was 83.4%.
With vitamin E the “Percent activity (POV) = 100 x OD of sample or standard / OD of control” value [1] was 0%, the “Percent activity (free radical scavenging)” value [2] was 83.0% and the “Percent activity (free radical scavenging)” value [3] was 83.0%.
